Measurements: paper PMC7910394, “Design of PSMA ligands with modifications at the inhibitor part: an approach to reduce the salivary gland uptake of radiolabeled PSMA inhibitors?” (EJNMMI Radiopharmacy and Chemistry, 2021)

Tests used:
LNCaP cells = experiment: Internalization study of 177Lu-labeled ligands in LNCaP cells, normalized to ([125I]I-BA)KuE; assay type: cell-based, human; conditions: 1 h, 37 °C, 1.0 nM 177Lu-compound, normalized to ([125I]I-BA)KuE
Description: PSMA-positive LNCaP cells (300265; Cell Lines Service, Eppelheim, Germany) were cultivated in Dulbecco’s modified Eagle medium/Nutrition Mixture F-12 with GlutaMAX (1/1, DMEM-F12, Thermo Fisher Scientific, Darmstadt, Germany) supplemented with 10% fetal bovine serum (Merck KGaA, Darmstadt, Germany) and kept at 37 °C in a humidified 5% CO2 atmosphere. One day (24 ± 2 h) prior to all in vitro experiments, the cultivated LNCaP cells were harvested using a mixture of trypsin/ethylenediamine-tetraacetic acid (0.05%/0.02%) in PBS (Thermo Fisher Scientific, Darmstadt, Germany) and centrifuged at 1300 rpm (ca. 190×g) for 3 min at room temperature (Heraeus Megafuge 16, Thermo Fisher Scientific, Darmstadt, Germany). After centrifugation, the supernatant was disposed and the cell pellet was resuspended in culture medium. Cells were counted with a Neubauer hemocytometer (Paul Marienfeld GmbH & Co. KG, Lauda-Königshofen, Germany) and seeded in 24-well plates.
Detailed information on affinity and internalization experiments is provided in the supporting information. […] IC50 values of (^natI-BA)KuE were determined on the same day for monitoring assay performance and to identify abnormal deviations in uptake and/or affinity. […] Data were corrected for non-specific binding and normalized to the specific internalization observed for the radioiodinated reference compound (n = 3).
The culture medium was removed and the cells were washed with 500 µL of DMEM-F12 containing 5% BSA. Afterwards, 200 µL of DMEM-F12 (5% BSA) were added to each well and left to equilibrate at 37 °C for 15 min. 25 µL of DMEM-F12 (5% BSA) were added to each well, followed by the addition of 25 µL of the respective ^177Lu-labeled ligand (10.0 nM in DMEM-F12 (5% BSA)). For blocking PSMA-specific binding and uptake, 25 µL of 2-(phosphonomethyl)pentane-1,5-dioic acid (2-PMPA) (100 µM in DMEM (5% BSA)) instead of DMEM-F12 (5% BSA) were added prior to radiotracer addition. […] Each experiment (control and blockade) was performed in triplicate. […] Incubation was terminated by placing the plate on ice (4 °C, 1 min) and removal of the incubation medium. The cells were washed with 250 µL of ice-cold PBS and the wash medium was combined with the respective supernatant. This fraction represents the amount of free radioligand. 250 µL of ice-cold 2-PMPA (10 µM in PBS) were added and the cells were incubated for 10 min at 4 °C. Afterwards, the cells were rinsed again with 250 µL of ice-cold PBS and the wash medium was combined with the respective supernatant. This fraction represents the amount of cell surface-bound ligand. In the last step, the cells were lysed by addition of 250 µL of 1 M aqueous NaOH. After 20 min, the lysate of each well was transferred to the respective vial as well as 250 µL of 1 M NaOH used for rinsing the well. This fraction represents the amount of internalized radioligand. Quantification of the amount of free, cell surface-bound and internalized activity was performed in a γ-counter.

[1] = system: LNCaP tumor xenograft-bearing CB17-SCID mouse; assay type: in vivo; conditions: 1 h p.i.
Description: Detailed information on organ preparation and extraction procedures is provided in the supporting information. In brief, [^177Lu]Lu-11 (9.64 MBq) was injected into the tail vein of a LNCaP tumor xenograft-bearing CB17-SCID mouse. The animal was sacrificed 1 h p.i. and subjected to the standard procedure for biodistribution studies. In addition, urine was taken from all mice that were investigated in this experiment (8.4–9.0 MBq injected activity) and pooled (n = 5). Liver, tumor and kidneys were homogenized with a MM-400 ball mill (Retsch GmbH, Haan, Germany) at 30 Hz for 20 min and extracted with 1 mL radioimmunoprecipitation assay (RIPA) buffer containing 2 μmol of 2-(phosphonomethyl)pentane-1,5-dioic acid (2-PMPA). The suspension was centrifuged (15,200 rpm, 10 min, 21 °C) and the supernatants were loaded onto a preconditioned Strata-X cartridge (200 mg). Elution of the activity was conducted by 750 μL of MeCN/H2O (6/4, 0.1% TFA) and the extracts were analyzed via radio-RP-HPLC. Prior to solid phase extraction, blood samples were centrifuged twice (13,000 rpm, 5 min) to separate the plasma from the blood cells. Urine samples were also centrifuged (13,000 rpm, 5 min) and the supernatant was directly analyzed via radio-RP-HPLC.
Besides biodistribution and μSPECT/CT studies, [^177Lu]Lu-11 (tetrazole) was analyzed according to its metabolic stability 1 h p.i. Relevant dissected organs (tumor, kidney, liver) and body fluids (blood and urine) were collected, homogenized if necessary and subjected to extraction of the incorporated activity. […] The respective radio-RP-HPLC analyses of extracts from homogenized organs and body fluids are depicted in Figure 1 in the supporting information.
[^177Lu]Lu-11 (9.64 MBq) was injected into the tail vein of a LNCaP tumor xenograft-bearing CB17-SCID mouse. The animal was sacrificed 1 h p.i. and subjected to the standard procedure for biodistribution studies. In addition, urine was taken from all mice that were investigated in this experiment (8.4 - 9.0 MBq) and pooled (n = 5). Relevant dissected organs (tumor, kidneys, liver) and body fluids (blood and urine) were collected, homogenized if necessary and subjected to mechanochemical as well as solid phase extraction (SPE).
Four 2 mL LoBind tubes were equipped with steel and ceramic beads from Lysis Tubes W (analytikjena, Jena, Germany) for kidneys, tumor and liver (bisected). 1 mL radioimmunoprecipitation assay (RIPA) buffer containing 2.0 µmol of 2-PMPA was added to each tube and the organs were homogenized with a MM-400 ball mill (Retsch GmbH, Haan, Germany) at 30 Hz for 20 min. Afterwards, the homogenates were transferred to LoBind tubes free from steel and ceramic beads and centrifuged (15,200 rpm, 10 min, 21 °C). The first supernatants were stored, and the precipitates were again subjected to mechanochemical extraction with 1 mL RIPA buffer (2.0 µmol PMPA) at 30 Hz for 20 min. After centrifugation (15,200 rpm, 10 min, 21 °C), also the second supernatants were kept for SPE.
After cardiac puncture, 1 mL Tracepur®-H2O was directly added to the collected blood sample and centrifuged twice (13,000 rpm, 5 min) to separate the plasma from the blood cells. The precipitate was dissolved in 500 µL Tracepur®-H2O and together with the first supernatant again centrifuged (13,000 rpm, 5 min). Both supernatants were kept for SPE.
Pooled urine samples were centrifuged (13,000 rpm, 5 min) and the supernatant was directly analyzed via radio-RP-HPLC.

## CC(C)(C)[Si](F)(c1ccc(C(=O)NC[C@@H](NC(=O)CN2CCN(CC(=O)[O-])CCN(CC(=O)[O-])CCN(CC(=O)[O-])CC2)C(=O)N[C@H](CCCCNC(=O)CCC(=O)NCCC[C@@H](NC(=O)CC[C@H](NC(=O)N[C@@H](CCc2nnn[nH]2)C(=O)O)C(=O)O)C(=O)O)C(=O)O)cc1)C(C)(C)C.[Lu+3] [^natLu/[^177Lu]Lu-11]
LNCaP cells
  %Internalization compared to the reference: 1 h: 9.9 ± 3.2%
LNCaP cells; listed as [^177Lu]Lu-11
  %Internalization compared to the reference: 9.9 ± 3.2%
[1]; pooled urine (n = 5)
  metabolite with higher hydrophilicity found in the urine: 18.7%
[1]; radio-RP-HPLC of extract
  metabolite with higher hydrophilicity detected in blood: 8.5%
  metabolite with higher hydrophilicity detected in kidney: 11.7%
  metabolite with higher hydrophilicity detected in tumor: 7.1%
  metabolite with higher hydrophilicity in the liver homogenate: not detectable
  more lipophilic metabolite (tR = 20.5 min) in the liver homogenate: 28.0%
